Active and inactive are the calls of the source. The rule behind the calls is not given here.
How the values were obtained:
[1] = target: T1, Neuronal acetylcholine receptor; alpha3/beta4 (Homo sapiens, UniProt P30926+P32297); experiment: Displacement of [3H]-epibatidine from human alpha3beta4 nACh receptor expressed in HEK293 cells preincubated for 5 mins followed by radioligand addition by beta counting analysis; format: cell-based
[2] = target: Neuronal acetylcholine receptor; alpha4/beta2 (Rattus norvegicus, UniProt P09483+P12390); experiment: Displacement of [3H]-epibatidine from rat alpha4beta2 nACh receptor expressed in rat cortical membrane preincubated for 30 mins followed by radioligand addition by […] analysis; format: cell membranes
[3] = target: Neuronal acetylcholine receptor subunit alpha-7 (Rattus norvegicus, UniProt Q05941); experiment: Displacement of [125I] alpha bungarotoxin from rat alpha7 nACh receptor expressed in rat hippocampal membrane preincubated for 30 mins followed by radioligand addition by gamma counting analysis; format: cell membranes, Hippocampus
Homo sapiens [4] = organism: Homo sapiens; experiment: Selectivity ratio of Ki for rat alpha4beta2 nACh receptor to Ki for human alpha3beta4 nACh receptor
Homo sapiens [5] = organism: Homo sapiens; experiment: Selectivity ratio of Ki for rat alpha7 nACh receptor to Ki for human alpha3beta4 nACh receptor
[6] = target: T2, Neuronal acetylcholine receptor; alpha4/beta2 (Homo sapiens) (UniProt P17787+P43681); experiment: Agonist activity at human alpha4beta2 nACh receptor expressed in rat […] cells assessed as increase in current amplitudes at 0.1 to 100 uM after 2 to 3 days by patch clamp assay; format: cell-based
[7] = target: T1, Neuronal acetylcholine receptor; alpha3/beta4; experiment: Agonist activity at human alpha3beta4 nACh receptor expressed in rat […] cells assessed as increase in current amplitudes at 0.1 to 100 uM after 2 to 3 days by patch clamp assay relative to acetylcholine; format: cell-based
[8] = target: T3, Neuronal acetylcholine receptor subunit alpha-7 (Homo sapiens, UniProt P36544); experiment: Agonist activity at human alpha7 nACh receptor expressed in rat GH4C1 cells assessed as increase in current amplitudes at 0.1 to 100 uM after 2 to 3 days by patch clamp assay; format: cell-based; details: GH4-C1
[9] = target: T2, Neuronal acetylcholine receptor; alpha4/beta2 (Homo sapiens); experiment: Antagonist activity at human alpha4beta2 nACh receptor; format: protein-complex assay
[10] = target: T1, Neuronal acetylcholine receptor; alpha3/beta4; experiment: Antagonist activity at human alpha3beta4 nACh receptor; format: protein-complex assay
[11] = target: T3, Neuronal acetylcholine receptor subunit alpha-7; experiment: Agonist activity at human alpha7 nACh receptor expressed in rat GH4C1 cells assessed as increase in current amplitudes after 2 to 3 days by patch clamp assay; format: cell-based, GH4-C1
[12] = target: T1, Neuronal acetylcholine receptor; alpha3/beta4; experiment: Agonist activity at human alpha3beta4 nACh receptor expressed in rat GH4C1 cells assessed as increase in current amplitudes after 2 to 3 days by patch clamp assay; format: cell-based, GH4-C1

T1 sequence (P30926 whole entry): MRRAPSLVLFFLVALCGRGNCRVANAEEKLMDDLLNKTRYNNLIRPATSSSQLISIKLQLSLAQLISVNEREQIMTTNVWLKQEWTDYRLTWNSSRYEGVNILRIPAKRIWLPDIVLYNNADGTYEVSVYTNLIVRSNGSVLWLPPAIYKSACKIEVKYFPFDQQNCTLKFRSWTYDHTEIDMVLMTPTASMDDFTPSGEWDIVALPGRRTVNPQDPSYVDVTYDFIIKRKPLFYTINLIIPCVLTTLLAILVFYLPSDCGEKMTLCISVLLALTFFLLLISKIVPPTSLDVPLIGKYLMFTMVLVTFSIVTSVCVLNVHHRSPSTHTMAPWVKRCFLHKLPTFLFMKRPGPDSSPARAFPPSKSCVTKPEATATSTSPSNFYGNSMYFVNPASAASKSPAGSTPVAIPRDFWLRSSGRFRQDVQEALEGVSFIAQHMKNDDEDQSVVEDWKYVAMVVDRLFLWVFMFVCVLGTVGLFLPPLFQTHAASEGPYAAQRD
T1 sequence (P32297 whole entry): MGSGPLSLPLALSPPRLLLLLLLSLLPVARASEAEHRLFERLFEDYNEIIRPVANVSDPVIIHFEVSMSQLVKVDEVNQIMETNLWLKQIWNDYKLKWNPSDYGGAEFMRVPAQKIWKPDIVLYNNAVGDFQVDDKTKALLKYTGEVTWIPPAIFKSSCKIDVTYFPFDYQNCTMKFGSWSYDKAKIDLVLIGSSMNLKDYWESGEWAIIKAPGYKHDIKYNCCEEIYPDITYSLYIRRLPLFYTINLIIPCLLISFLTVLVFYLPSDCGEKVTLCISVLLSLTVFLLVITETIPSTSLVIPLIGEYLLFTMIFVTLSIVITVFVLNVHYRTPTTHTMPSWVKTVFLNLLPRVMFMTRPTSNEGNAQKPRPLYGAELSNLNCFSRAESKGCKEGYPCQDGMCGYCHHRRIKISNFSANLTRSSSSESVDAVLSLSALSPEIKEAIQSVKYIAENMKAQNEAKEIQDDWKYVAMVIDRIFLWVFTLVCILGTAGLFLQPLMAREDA
Sequence of Neuronal acetylcholine receptor; alpha4/beta2 (P09483 whole entry): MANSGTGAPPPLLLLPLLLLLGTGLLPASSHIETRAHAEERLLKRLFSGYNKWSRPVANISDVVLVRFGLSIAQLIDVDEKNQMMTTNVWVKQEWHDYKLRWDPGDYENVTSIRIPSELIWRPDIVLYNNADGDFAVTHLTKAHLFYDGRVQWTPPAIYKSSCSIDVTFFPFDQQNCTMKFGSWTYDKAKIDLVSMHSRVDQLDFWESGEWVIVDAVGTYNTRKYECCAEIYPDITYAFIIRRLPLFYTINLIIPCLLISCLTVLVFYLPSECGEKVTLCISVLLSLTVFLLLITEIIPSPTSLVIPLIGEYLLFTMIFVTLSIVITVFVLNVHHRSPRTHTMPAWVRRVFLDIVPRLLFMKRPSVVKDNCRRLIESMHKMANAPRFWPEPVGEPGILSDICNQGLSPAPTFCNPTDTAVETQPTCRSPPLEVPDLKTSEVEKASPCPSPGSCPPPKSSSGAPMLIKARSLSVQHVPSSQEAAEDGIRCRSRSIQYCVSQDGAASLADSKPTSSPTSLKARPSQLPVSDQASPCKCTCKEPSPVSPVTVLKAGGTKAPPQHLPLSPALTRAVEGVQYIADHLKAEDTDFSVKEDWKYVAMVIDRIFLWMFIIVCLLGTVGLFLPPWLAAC
Sequence of Neuronal acetylcholine receptor; alpha4/beta2 (P12390 whole entry): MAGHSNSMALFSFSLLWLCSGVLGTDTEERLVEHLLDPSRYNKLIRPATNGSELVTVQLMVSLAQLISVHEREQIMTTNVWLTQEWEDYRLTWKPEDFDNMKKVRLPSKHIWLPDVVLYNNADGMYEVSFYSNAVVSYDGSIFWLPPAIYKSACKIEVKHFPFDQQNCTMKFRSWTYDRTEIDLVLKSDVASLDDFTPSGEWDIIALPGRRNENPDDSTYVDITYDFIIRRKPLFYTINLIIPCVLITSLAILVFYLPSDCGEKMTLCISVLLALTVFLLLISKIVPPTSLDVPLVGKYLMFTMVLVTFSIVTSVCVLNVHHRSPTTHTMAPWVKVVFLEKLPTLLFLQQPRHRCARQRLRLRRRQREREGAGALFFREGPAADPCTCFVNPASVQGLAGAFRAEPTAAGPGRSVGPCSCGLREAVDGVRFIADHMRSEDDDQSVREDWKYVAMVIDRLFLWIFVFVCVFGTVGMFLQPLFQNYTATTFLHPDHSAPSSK
Sequence of Neuronal acetylcholine receptor subunit alpha-7 (Rattus norvegicus, UniProt Q05941) (Q05941 whole entry): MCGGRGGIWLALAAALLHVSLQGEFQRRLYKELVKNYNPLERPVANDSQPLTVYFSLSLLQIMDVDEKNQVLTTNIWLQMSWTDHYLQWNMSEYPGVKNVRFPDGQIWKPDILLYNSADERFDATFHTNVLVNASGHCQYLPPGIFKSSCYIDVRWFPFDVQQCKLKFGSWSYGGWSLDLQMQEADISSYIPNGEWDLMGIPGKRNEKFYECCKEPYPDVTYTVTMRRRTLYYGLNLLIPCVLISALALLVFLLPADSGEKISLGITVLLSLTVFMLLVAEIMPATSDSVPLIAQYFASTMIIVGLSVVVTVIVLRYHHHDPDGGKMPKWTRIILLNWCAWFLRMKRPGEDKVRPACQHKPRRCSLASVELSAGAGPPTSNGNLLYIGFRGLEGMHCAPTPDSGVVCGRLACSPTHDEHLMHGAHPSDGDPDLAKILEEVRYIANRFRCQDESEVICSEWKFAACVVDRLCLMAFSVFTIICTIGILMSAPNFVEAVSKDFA
T3 sequence (P36544 whole entry): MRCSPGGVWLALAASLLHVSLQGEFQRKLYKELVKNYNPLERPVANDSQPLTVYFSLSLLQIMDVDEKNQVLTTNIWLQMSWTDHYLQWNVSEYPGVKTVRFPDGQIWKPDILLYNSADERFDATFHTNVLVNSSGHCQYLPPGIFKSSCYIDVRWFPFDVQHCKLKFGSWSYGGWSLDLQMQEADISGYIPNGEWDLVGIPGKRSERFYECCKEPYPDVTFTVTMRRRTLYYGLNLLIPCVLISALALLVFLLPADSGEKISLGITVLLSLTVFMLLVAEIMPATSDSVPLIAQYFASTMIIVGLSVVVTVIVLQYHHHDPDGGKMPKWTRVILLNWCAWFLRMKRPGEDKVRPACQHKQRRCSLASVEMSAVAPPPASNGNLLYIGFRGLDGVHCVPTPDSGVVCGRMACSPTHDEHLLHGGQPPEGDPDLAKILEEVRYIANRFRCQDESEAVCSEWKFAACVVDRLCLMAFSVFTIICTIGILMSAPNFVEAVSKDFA

| SMILES | Ki [1] [nM] | Ki [2] [nM] | Ki [3] [nM] | Ratio Ki (Homo sapiens [4]) | Ratio Ki (Homo sapiens [5]) | Activity [6] | Emax [7] [%] | Activity [8] | inhibition [9] | inhibition [10] | EC50 [11] [µM] | EC50 [12] [µM] |
| --- | --- | --- | --- | --- | --- | --- | --- | --- | --- | --- | --- | --- |
| OCc1cc(F)cc(C2=NCCCC2)c1 | 80 | 744 | 821 | 9.3 | 10 |  |  |  |  |  |  |  |
| Brc1cccc(C2=NCCCC2)c1 | 29.8 | 5020 | 43.2 | 168 | 1.5 |  |  |  |  |  |  |  |
| Fc1cc(Br)cc(C2=NCCCC2)c1 | 48 | 1770 | 204 | 37 | 4.3 |  |  |  |  |  |  |  |
| Ic1cccc(C2=NCCCC2)c1 | 4.7 | 3790 | 11.3 | 806 | 2.4 | inactive | 60 | inactive | inactive | inactive |  |  |
| Brc1cc(Br)cc(C2=NCCCC2)c1 | 70.8 | 18800 | 343 | 266 | 4.8 |  |  |  | inactive | inactive |  |  |
| Fc1cccc(C2=NCCCC2)c1 | 108 | 2040 | 2370 | 19 | 22 |  |  |  |  |  |  |  |
| Cc1cccc(C2=NCCCC2)c1 | 155 | 1450 | 384 | 9.4 | 2.5 |  |  |  |  |  |  |  |
| Oc1cccc([C@H]2C[C@@H]3CC[C@H]2N3)c1 (racemic) | 80 | 127 | 609 | 1.6 | 7.6 |  |  |  |  |  |  |  |
| c1ccc(C2=NCCCC2)cc1 | 194 | 2080 | 2400 | 11 | 12 |  |  |  |  |  |  |  |
| Clc1cccc(C2=NCCCC2)c1 | 77.2 | 11500 | 394 | 149 | 5.1 |  |  |  |  |  |  |  |
| c1cncc(C2=NCCCC2)c1 [ANABASEINE] | 107 | 67 | 32 | 0.6 | 0.3 |  |  |  |  |  |  |  |
| Oc1cccc(C2=NCCCC2)c1 | 680 | 32000 | 9300 | 47 | 14 |  |  |  |  |  |  |  |
| OCc1cccc(C2=NCCCC2)c1 | 80 | 35000 | 158 | 438 | 2 |  |  |  |  |  | 60 | 20 |
| OCc1cccc([C@H]2C[C@@H]3CC[C@H]2N3)c1 (racemic) | 92 | 429 | 1800 | 4.7 | 20 |  |  |  |  |  |  |  |
